{"source": "patent US9359196B2", "about": "“Antiproliferative compositions comprising curcumin analogs and methods of producing and using same” (The Board of Regents of the University of Oklahoma, priority 2009, dated 2016)", "key": {"[1]": {"tested_on": "Nrf2", "test": "Nuclear extract immunoblot of phospho-Nrf2", "assay_type": "cell-based, human", "settings": "H441 cells, nuclear fraction", "method": "Nuclear extract and immunoblotting: Nuclear extract was prepared using a kit from Active Motif (Carlsbad, Calif.) following the manufacturer's instructions. Briefly, H441 cells were allowed to grow for 24 h in 6-well plates before treatment with CLEFMA. After 12 or 24 h, the cells were scraped into ice-cold PBS and centrifuged at 300×g for 5 min to obtain a pellet. The pelleted cells was resuspended in a hypotonic buffer (20 mM HEPES, pH 7.5, 5 mM NaF, 0.1 mM EDTA, and 0.01 mM Sodium molybdate) and allowed to swell for 15 min on ice. The cells were lysed by adding 50 μl 10% Nonidet P-40 and centrifuged for 30 sec to separate the cytoplasmic and nuclear fractions. The nuclear fraction was extracted after 30 min in an ice-cold complete lysis buffer obtained with the kit. The nuclear extract was separated by centrifugation for 10 min at 14,000×g at 4° C. To immunoblot nuclear factor-erythroid 2-related factor 2 (Nrf2), the nuclear protein (10 μg) was separated on a 4/20% SDS-PAGE gel, transferred onto nitrocellulose membrane and probed with rabbit anti-phospho-Nrf2 antibody and HRP-conjugated goat anti-rabbit IgG antibody. The chemiluminescence signal was developed by Pierce SuperSignal West Femto reagent (Thermo Scientific, Rockford, Ill.). Equal protein loading was confirmed by stripping the blot and re-probing it with anti-actin antibody. […]"}, "[2]": {"tested_on": "H441 cells", "test": "MitoSOX Red mitochondrial superoxide imaging / flow cytometry", "assay_type": "cell-based, human", "settings": "0-20 μM, 12-48 h", "method": "MitoSOX Red mitochondrial superoxide imaging: Cells were grown to 70% confluency in 24-well tissue culture plates and treated with CLEFMA (0-20 μM) for 12-48 h; treatment with hydrogen peroxide (H2O2, 10 μM) served as a positive control. At the end of the incubation period, both the non-adherent and adherent cells were incubated with 5 μM MitoSOX Red solution (Invitrogen, Carlsbad, Calif.) for 30 min at 37° C. For flow cytometric analysis, the MitoSOX-loaded cells were trypsinized and collected in HBSS (with Ca/Mg) containing 1% BSA and suspended at a density of 1−2×10^7 cells/ml. Approximately 5-10 million cells were aliquoted into a binding buffer and run through an automated dual-laser-excited FACS Calibur (Flow and Imaging Core Facility, OUHSC, Oklahoma City) measuring at 488 nm excitation wavelength. The data were collected at the FSC, FL2 and FL3 channels for at least 10,000 events, and the histogram and dot-plot charts were obtained and analyzed using Summit V4.3 software (Dako Colorado Inc, Carpinteria, Calif.). For microscopy, the MitoSOX-loaded cells were counterstained with 1 μg/ml Hoechst 33342 dye (Molecular Probes, Carlsbad, Calif.). […]"}}, "data": [{"smiles": "O=C(O)C=CC(=O)N1CC(=Cc2ccccc2Cl)C(=O)C(=Cc2ccccc2Cl)C1", "note": "[Compound 29, 4-[3,5-Bis-(2-chlorobenzylidene)-4-oxo-piperidin-1-yl]-4-oxo-2-butenoic acid]", "values": [{"measurement": "Nrf2 activation and nuclear translocation", "setting": "[1]", "value": "activated Nrf2 and caused its translocation into the nuclear fraction"}, {"measurement": "mitochondrial ROS production (MitoSOX)", "setting": "[2]", "value": "time- and dose dependent increase in mitochondrial ROS production"}]}]}
